Experimental data: patent publication US9980943B2, “Methods of treating muscular dystrophy” (BOARD OF REGENTS OF THE NEVADA SYSTEM OF HIGHER EDUCATION, …, priority 2013, dated 2018)

Assays:
Assay type in all cases: cell-based, mouse
[1] = test system: α7 integrin (LacZ reporter in α7+/LacZ myotubes); assay: Myotube α7 integrin FDG assay (Burkin assay in myotubes, 96-well); conditions: myotubes
[2] = test system: α7 integrin (LacZ reporter in α7βgal+/− myoblasts); assay: Myoblast α7+/LacZ integrin FDG assay (Burkin assay in myoblasts, 96-well); conditions: α7+/LacZ myoblasts, 96-well
[3] = test system: β-galactosidase in CMV-LacZ C2C12 myotubes; assay: CMV-LacZ secondary screen in C2C12 myotubes (β-Gal stabilizing assay); conditions: for CMV-LACZ in Myotubes (β-galactosidase activity relative to DMSO): CMV-LacZ C2C12 myotubes, 96-well format
Outline: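 First, C2C12 myoblasts were transfected with a linearized CMV-LACZ vector and clonal lines selected by FDG β-gal assay. Then cells were exposed to compounds at 0.5, 1, 5, 10, 20 and 40 μM in 96-well format, two replicates each, and β-gal measured.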

[4] = 5 uM, C2C12 CMV-LacZ myotubes, fold relative to DMSO
[5] = 10 uM, C2C12 CMV-LacZ myotubes, fold relative to DMSO
[6] = 20 uM, C2C12 CMV-LacZ myotubes, fold relative to DMSO
[7] = 40 uM, C2C12 CMV-LacZ myotubes, fold relative to DMSO

Row | SMILES | CMV-LACZ in Myotubes, signal relative to DMSO [3, 4] | CMV-LACZ in Myotubes, signal relative to DMSO [3, 5] | CMV-LACZ in Myotubes, signal relative to DMSO [3, 6] | CMV-LACZ in Myotubes, signal relative to DMSO [3, 7] | Burkin Assay in Myotubes (signal relative to DMSO) ([1]; 0.5 uM) | Burkin Assay in Myotubes (signal relative to DMSO) ([1]; 1 uM) | Burkin Assay in Myotubes (signal relative to DMSO) ([1]; 5 uM) | Burkin Assay in Myotubes (signal relative to DMSO) ([1]; 10 uM) | Burkin Assay in Myotubes (signal relative to DMSO) ([1]; 20 uM) | Burkin Assay in Myotubes (signal relative to DMSO) ([1]; 40 uM) | Burkin Assay in Myoblasts, value relative to DMSO ([2]; 0.5 uM) | Burkin Assay in Myoblasts, value relative to DMSO ([2]; 1 uM) | Burkin Assay in Myoblasts, value relative to DMSO ([2]; 5 uM) | Burkin Assay in Myoblasts, value relative to DMSO ([2]; 10 uM) | Burkin Assay in Myoblasts, value relative to DMSO ([2]; 20 uM) | Burkin Assay in Myoblasts, value relative to DMSO ([2]; 40 uM) | CMV-LACZ in Myotubes (β-galactosidase activity relative to DMSO) ([3]; 5 uM) | CMV-LACZ in Myotubes (β-galactosidase activity relative to DMSO) ([3]; 10 uM) | CMV-LACZ in Myotubes (β-galactosidase activity relative to DMSO) ([3]; 20 uM) | CMV-LACZ in Myotubes (β-galactosidase activity relative to DMSO) ([3]; 40 uM) | other results
1 | O=C(COC(=O)Cn1cnc2ccccc21)Nc1cccc([N+](=O)[O-])c1 [MLS001005283-01] | 0.9005 | 0.9051 | 1.032 | 1.1425 | – | – | – | – | – | – | – | – | – | – | – | – | – | – | – | – | Burkin Assay in Myotubes, α7 integrin LacZ reporter signal relative to DMSO ([1]; 0.5 uM): 0.9811; Burkin Assay in Myotubes, α7 integrin LacZ reporter signal relative to DMSO ([1]; 1 uM): 0.9951; Burkin Assay in Myotubes, α7 integrin LacZ reporter signal relative to DMSO ([1]; 5 uM): 0.8583; Burkin Assay in Myotubes, α7 integrin LacZ reporter signal relative to DMSO ([1]; 10 uM): 0.9141; Burkin Assay in Myotubes, α7 integrin LacZ reporter signal relative to DMSO ([1]; 20 uM): 0.9432; Burkin Assay in Myotubes, α7 integrin LacZ reporter signal relative to DMSO ([1]; 40 uM): 0.7596; Burkin Assay in Myoblasts, signal relative to DMSO ([2]; 0.5 uM): 0.8702; Burkin Assay in Myoblasts, signal relative to DMSO ([2]; 1 uM): 0.8582; Burkin Assay in Myoblasts, signal relative to DMSO ([2]; 5 uM): 0.9346; Burkin Assay in Myoblasts, signal relative to DMSO ([2]; 10 uM): 0.8908; Burkin Assay in Myoblasts, signal relative to DMSO ([2]; 20 uM): 0.8965; Burkin Assay in Myoblasts, signal relative to DMSO ([2]; 40 uM): 0.9301
2 | O=C(NC1CCCC1)c1ccc(CS(=O)(=O)Cc2ccccc2F)o1 [MLS001030746-01] | – | – | – | – | 1.047 | 0.9692 | 1.031 | 0.9496 | 0.9886 | 1.067 | 0.9195 | 0.8373 | 1.069 | 1.073 | 0.9338 | 0.9637 | 0.9791 | 0.8757 | 1.098 | 0.9912 | –
3 | COc1ccc(CNC(=O)COC(=O)CCc2c[nH]c3ccccc23)cc1 [MLS001033202-01] | 0.9658 | 0.9933 | 0.8214 | 1.2 | – | – | – | – | – | – | – | – | – | – | – | – | – | – | – | – | Burkin Assay in Myotubes, α7 integrin LacZ reporter signal relative to DMSO ([1]; 0.5 uM): 1.057; Burkin Assay in Myotubes, α7 integrin LacZ reporter signal relative to DMSO ([1]; 1 uM): 1.019; Burkin Assay in Myotubes, α7 integrin LacZ reporter signal relative to DMSO ([1]; 5 uM): 1.042; Burkin Assay in Myotubes, α7 integrin LacZ reporter signal relative to DMSO ([1]; 10 uM): 1.0906; Burkin Assay in Myotubes, α7 integrin LacZ reporter signal relative to DMSO ([1]; 20 uM): 1.051; Burkin Assay in Myotubes, α7 integrin LacZ reporter signal relative to DMSO ([1]; 40 uM): 0.986; Burkin Assay in Myoblasts, signal relative to DMSO ([2]; 0.5 uM): 0.6682; Burkin Assay in Myoblasts, signal relative to DMSO ([2]; 1 uM): 0.9153; Burkin Assay in Myoblasts, signal relative to DMSO ([2]; 5 uM): 0.9952; Burkin Assay in Myoblasts, signal relative to DMSO ([2]; 10 uM): 0.9282; Burkin Assay in Myoblasts, signal relative to DMSO ([2]; 20 uM): 0.8408; Burkin Assay in Myoblasts, signal relative to DMSO ([2]; 40 uM): 0.7704
4 | O=C(Nc1ccc(N2CCN(C(=O)c3ccccc3F)CC2)cc1)c1cncc(Br)c1 [MLS001060533-01] | – | – | – | – | 0.9464 | 1.208 | 1.318 | 1.52 | 1.342 | 1.117 | 0.9049 | 0.9915 | 1.033 | 1.101 | 1.397 | 1.22 | 0.8358 | 0.7789 | 0.7716 | 0.6871 | –
5 | O=C(Nc1ccc(Cl)cc1N1CCOCC1)C1CCCCC1 [MLS001060549-01] | 1.322 | 0.8952 | 0.8814 | 1.075 | 0.8181 | 1.071 | 0.9783 | 1.111 | 0.9391 | 0.9134 | 1.056 | 1.204 | 1.012 | 1.072 | 0.7731 | 0.9411 | – | – | – | – | –
6 | O=C(c1ccc(Cl)c(S(=O)(=O)N2CCCCC2)c1)N1CCN(Cc2ccccc2)CC1 [MLS001060561-01] | – | – | – | – | 0.8047 | 0.9329 | 0.9832 | 0.9977 | 0.8557 | 0.9329 | 0.9961 | 0.9284 | 0.8266 | 0.8878 | 0.795 | 0.6318 | 0.9396 | 1.002 | 0.9373 | 0.6425 | –
7 | COc1nccc(NCc2ccccc2)c1C#N [MLS001077207-01] | – | – | – | – | – | – | – | – | – | – | – | – | – | – | – | – | – | – | – | – | fold induction at 0.5 µM ([1]; Mus musculus, Myotube, 0.5 uM, read-out: Burkin Assay in Myotubes, α7 integrin LacZ reporter signal relative to DMSO): 0.985; fold induction at 1 µM ([1]; Mus musculus, Myotube, 1 uM, read-out: Burkin Assay in Myotubes, α7 integrin LacZ reporter signal relative to DMSO): 1.06; fold induction at 5 µM ([1]; Mus musculus, Myotube, 5 uM, read-out: Burkin Assay in Myotubes, α7 integrin LacZ reporter signal relative to DMSO): 1.42; fold induction at 10 µM ([1]; Mus musculus, Myotube, 10 uM, read-out: Burkin Assay in Myotubes, α7 integrin LacZ reporter signal relative to DMSO): 1.15; fold induction at 20 µM ([1]; Mus musculus, Myotube, 20 uM, read-out: Burkin Assay in Myotubes, α7 integrin LacZ reporter signal relative to DMSO): 1.01; fold induction at 40 µM ([1]; Mus musculus, Myotube, 40 uM, read-out: Burkin Assay in Myotubes, α7 integrin LacZ reporter signal relative to DMSO): 1.21; fold induction at 0.5 µM ([2]; Mus musculus, Myoblast, 48 h, 0.5 uM, read-out: Burkin Assay in Myoblasts, signal relative to DMSO): 0.97; fold induction at 1 µM ([2]; Mus musculus, Myoblast, 48 h, 1 uM, read-out: Burkin Assay in Myoblasts, signal relative to DMSO): 1.01; fold induction at 5 µM ([2]; Mus musculus, Myoblast, 48 h, 5 uM, read-out: Burkin Assay in Myoblasts, signal relative to DMSO): 1.05; fold induction at 10 µM ([2]; Mus musculus, Myoblast, 48 h, 10 uM, read-out: Burkin Assay in Myoblasts, signal relative to DMSO): 1.06; fold induction at 20 µM ([2]; Mus musculus, Myoblast, 48 h, 20 uM, read-out: Burkin Assay in Myoblasts, signal relative to DMSO): 1.01; fold induction at 40 µM ([2]; Mus musculus, Myoblast, 48 h, 40 uM, read-out: Burkin Assay in Myoblasts, signal relative to DMSO): 1.15; fold induction at 5 µM ([3]; Mus musculus, C2C12, read-out: CMV-LACZ in Myotubes, signal relative to DMSO, 5 uM, C2C12 CMV-LacZ myotubes, fold relative to DMSO): 0.952; fold induction at 10 µM ([3]; Mus musculus, C2C12, read-out: CMV-LACZ in Myotubes, signal relative to DMSO, 10 uM, C2C12 CMV-LacZ myotubes, fold relative to DMSO): 1.04; fold induction at 20 µM ([3]; Mus musculus, C2C12, read-out: CMV-LACZ in Myotubes, signal relative to DMSO, 20 uM, C2C12 CMV-LacZ myotubes, fold relative to DMSO): 0.866; fold induction at 40 µM ([3]; Mus musculus, C2C12, read-out: CMV-LACZ in Myotubes, signal relative to DMSO, 40 uM, C2C12 CMV-LacZ myotubes, fold relative to DMSO): 0.782
8 | CCOc1ccc(S(=O)(=O)NCCC(=O)NCC(c2cccs2)N2CCOCC2)cc1 (centres unmarked) [MLS001080869-01] | – | – | – | – | 1.011 | 0.9574 | 0.974 | 0.9257 | 0.9862 | 0.9802 | 1.144 | 1.036 | 1.147 | 0.9857 | 0.973 | 0.8485 | 0.9349 | 0.9153 | 0.9927 | 1.01 | –
